According to patent US20170209403A1, “METHOD FOR REGULATING ALDEHYDE DEHYDROGENASE 1” (National Cheng Kung University, priority 2016, published 2017):

Key:
[1] = test system: A2780 and CP70 ovarian cancer cells; experiment: MTT cytotoxicity assay (proliferation, doubling time); assay type: cell-based, human; conditions: A2780-High and CP70-High cells; ATRA treatment
Procedure: (§1) The cell lines were cultured in a humidified incubator containing 95% air and 5% CO2 at 37° C. in 96-well flat-bottomed microtiter plates. After 72 h of incubation, the in vitro cytotoxic effects of treatments were determined by MTT assay (at 570 nm).

[2] = test system: A2780-High and CP70-High cells; experiment: Transwell migration assay; assay type: cell-based, human; conditions: 10 μM ATRA for 28 days
Procedure: (§2) Cells (1×10^5) were seeded on Transwell filters with a pore size of 8 μm (Corning Costar) and were allowed to migrate toward medium containing 10% FBS. After 8 h, the cells on the upper surface of the Transwell membrane were removed with a cotton swab, and the migrated cells (on the underside of the Transwell) were fixed and stained with methanol and Giemsa staining dye (Merck, Darmstadt, Germany). The invasion assay was conducted in the same manner as the migration assay, except that Matrigel (BD Biosciences) was used, the incubation time differed (24 h) and the number of cells added to the upper chamber was 2×10^5 cells. Cell migration and invasion were quantified by counting the migrated cells in six random fields under a light microscope.

ALDH1 [3] = experiment: Aldefluor assay of ALDH1 enzyme activity / ALDH1-High cell fraction; assay type: cell-based, human
Procedure: (§3) An Aldefluor® kit (StemCell Technologies) was used to assess ALDH activity in the ovarian cancer cell lines, as previously described (Saw, Y. T. et al. (2012) BMC Cancer, 12, 329.). In brief, 1×10^6 cells were incubated in Aldefluor® assay buffer containing a 1.5 μM ALDH substrate for 30 min at 37° C. Each sample was treated with 50 μM of DEAB, and used as a negative control. Prior to analysis, cells were stained with […] of propidium iodide to evaluate their viability. The fluorescence intensity of the stained cells was analysed using a FACSAria cell sorter Flow Cytometer (BD Biosciences). The reaction with DEAB was used to define the baseline for the assay. The ALDH activity of a sample was determined to be ‘high’ or ‘low’ based on the fluorescence intensity beyond or below the threshold defined by the reaction with DEAB. The cells having high or low ALDH activity are marked “-High” or “-Low” hereafter.

ES2-High cells [4] = experiment: Transwell migration assay; assay type: cell-based, human; conditions: ATRA
Procedure: (§4) Right panel: relative fold changes of ALDH1 and FoxM1 expression compared with controls. […] Sphere formation in ES2-High cells after treatment with different concentrations of Thiostrepton or DAPT, and the relative fold changes in expression are shown (scale bar=200 μm).
as §2

CP70-High cells = experiment: Tumourigenesis of ATRA-pretreated cells in mouse xenograft; assay type: in vivo, NOD/SCID mice
Procedure: (§5) All animal studies adhered to protocols approved by the Institutional Animal Care and Use Committee of National Cheng Kung University Medical Centre. The mouse xenograft model was prepared as previously reported (Molthoff, C. F. et al. (1991) Int. J. Cancer, 47, 72-79). Briefly, cells were implanted in 50% Matrigel (BD Biosciences, San Jose, Calif.) and injected subcutaneously into the left flanks of 4- to 6-week-old female NOD/SCID (NOD.CB17-PRKDC (SCID)) mice. We observed mice for tumour formation every other day after cell inoculation and measured tumour size when it became measurable. Tumour size was measured using Vernier callipers by external measurement of the length and width, and the tumour volume was computed from the formula for an ellipsoid body […]. When the tumours reached ˜2000 mm^3 at approximately 28 days, the mice were sacrificed. […] All tumours were excised, fixed in 10% neutral buffered formalin, and embedded in paraffin for histological assessment or shock-frozen in liquid N2 and stored at −80° C. for further analysis.
We then inoculated 1×10^4 ATRA-pretreated A2780-High or CP70-High cells into mice. […] However, these findings were not observed in ES2-Low cells (FIG. 4A and FIG. 4B).

[5] = test system: ALDH1, FoxM1, Notch1, Oct-4 and Nanog expression in A2780 and CP70 cells; experiment: Western blotting of ALDH1, FoxM1, Notch1 and CSC markers; assay type: cell-based, human; conditions: A2780-High and CP70-High cells; 10 μM ATRA for 28 days
[6] = test system: ALDH1, FoxM1 and Notch-1 expression in ES2 cells; experiment: Western blotting of ALDH1, FoxM1 and Notch1; assay type: cell-based, human; conditions: ES2-High cells; ATRA
A2780-High cells = experiment: Tumourigenesis of ATRA-pretreated cells in mouse xenograft; assay type: in vivo, NOD/SCID mice
Procedure: Briefly, cells were implanted in 50% Matrigel (BD Biosciences, San Jose, Calif.) and injected subcutaneously into the left flanks of 4- to 6-week-old female NOD/SCID (NOD.CB17-PRKDC (SCID)) mice. We observed mice for tumour formation every other day after cell inoculation and measured tumour size when it became measurable. Tumour size was measured using Vernier callipers by external measurement of the length and width, and the tumour volume was computed from the formula for an ellipsoid body [volume=(length/2)×(width)]. When the tumours reached ˜2000 mm^3 at approximately 28 days, the mice were sacrificed. […] All tumours were excised, fixed in 10% neutral buffered formalin, and embedded in paraffin for histological assessment or shock-frozen in liquid N2 and stored at −80° C. for further analysis.

ALDH1 [7] = experiment: Immunohistochemical staining for ALDH1 in tumour tissue sections
[8] = test system: ES2 cells (ES2-High, ES2-Low); experiment: Sphere formation assay; assay type: cell-based, human; conditions: ES2-High cells; ATRA (10 μM)
Procedure: as §4
(§6) Standard sphere formation assays were performed according to Zhang et al. (Zhang, S. et al. Cancer Res., 68, 4311-4320.) with minor modification. The cells (1×10^3) were resuspended in serum-free DMEM/F12 medium supplemented with 5 μg/ml insulin (Sigma), 20 ng/ml human recombinant epidermal growth factor (EGF; Invitrogen, Life Technologies, Carlsbad, Calif.) and 10 ng/ml basic fibroblast growth factor (bFGF; Invitrogen) in ultra-low attachment plates (Corning Costar, Corning, N.Y.). Spheres that arose within 1-2 weeks were counted. Colony diameters >50 μm were counted as a single-positive colony. The middle field was chosen for counting of spheres, and two fields for each plate were counted under a dissecting microscope. For all sphere formation experiments, a minimum of eight wells was run for each condition. All data represent the mean ±SEM of three separate experiments and at least 24 different fields.
as §3

CP70-High tumour = experiment: Antitumour efficacy of ATRA in mouse xenografts; assay type: in vivo, NOD/SCID mice; conditions: 1×10^6 cells s.c.; ATRA 0.05 or 0.1 mg into the peritoneal cavity three times per week; at 22 days after tumour cell inoculation
Procedure: (§7) Cell suspensions of 1×10^6 A2780-High or CP70-High cells were inoculated subcutaneously into mice.
as §5, §7

A2780-High tumour = experiment: Antitumour efficacy of ATRA in mouse xenografts; assay type: in vivo, NOD/SCID mice
Procedure: as §7, §5, §7

[9] = test system: A2780 and CP70 ovarian cancer cells; experiment: Sphere formation assay; assay type: cell-based, human; conditions: A2780-High and CP70-High cells; 10 μM ATRA for 28 days
Procedure: FIGS. 1A-1F show ALDH1 regulates stemness and tumourigenic ability in ovarian cancer cells. […] A total of 1×10^3 A2780 (upper panel) and CP70 (lower panel) cells were seeded into a 96-well plate to evaluate the cells' sphere formation ability (scale bar=200 μm). DEAB was used to inhibit the reaction of ALDH1 and also served as a negative control. […] The β-actin was used as a protein loading control. The histogram represents the relative fold change of protein expression (right panel). […] A2780-ALDH1 (upper panel) and CP70-shALDH1 (lower panel) cells were seeded into 96-well plates to evaluate their sphere formation ability (scale bar=200 μm).
FIGS. 2A-2D show ALDH1 regulates stemness and tumourigenic ability through the FoxM1 and Notch1 signalling pathways. […] Representative images show spheres generated from single-cell cultures after 10 days. The lower panel depicts the relative sphere formation ratio (scale bar=200 μm). […] V: vector.
as §6, §3

ES2-High cells [10] = experiment: MTT cytotoxicity assay (proliferation, doubling time); assay type: cell-based, human; conditions: ATRA
Procedure: as §4, §1

[11] = test system: A2780-High and CP70-High cells; experiment: Transwell invasion assay; assay type: cell-based, human; conditions: 10 μM ATRA for 28 days
Procedure: as §2

[12] = 1×10^4 cells pretreated with ATRA (10 μM) for 28 days, inoculated into mice
[13] = CP70-High cells pretreated with ATRA, 1 × 10^4 cells injected

**Q.** For `CC1=C(/C=C/C(C)=C/C=C/C(C)=C/C(=O)O)C(C)(C)CCC1` [ATRA, all-trans retinoic acid], which “proliferation (cell doubling time)” value [1] is on record?
**A.** Its value is “did not affect proliferation”.

**Q.** And the cell migration ability [2]?
**A.** Its cell migration ability is “significantly reduced”.

**Q.** What about the ALDH1 activity (ALDH1 [3]; A2780-High and CP70-High cells, 10 μM ATRA for 28 days) of the same compound?
**A.** The ALDH1 activity was “significantly reduced”.

**Q.** And the “proportion of ALDH1-High cells” value (ALDH1 [3]; A2780-Low and CP70-Low cells, ATRA (10 μM) or paclitaxel (60 ng/ml) for 4 days)?
**A.** Its value is “decreased the proportion of ALDH1-High ovarian cancer cells”.

**Q.** What about the cell migration ability (ES2-High cells [4]) of the same compound?
**A.** Its cell migration ability is “inhibited”.

**Q.** And the tumour size (CP70-High cells; [12])?
**A.** The tumour size was “significant reduction of tumour size”.

**Q.** What about the “Number of tumours/number of injections” value (CP70-High cells; [13]) of the same compound?
**A.** Its value is 4/5.

**Q.** And the average tumour volume (CP70-High cells; [13])?
**A.** Its average tumour volume is “(545) mm^3”.

**Q.** What about the Tumour-initiating cell frequency (CP70-High cells; CP70-High cells pretreated with ATRA, calculated with ELDA software) of the same compound?
**A.** The Tumour-initiating cell frequency was 1/6213.

**Q.** What about the ALDH1 expression [5] of the same compound?
**A.** Its ALDH1 expression is “significantly reduced”.

**Q.** And the FoxM1 expression [5]?
**A.** The FoxM1 expression was “significantly reduced”.

**Q.** And the Notch1 expression [5]?
**A.** The Notch1 expression was “significantly reduced”.

**Q.** What about the ALDH1 expression [6] of the same compound?
**A.** Its ALDH1 expression is “inhibited”.

**Q.** And the FoxM1 expression [6]?
**A.** The FoxM1 expression was “inhibited”.

**Q.** What about the Notch1 expression [6] of the same compound?
**A.** Its Notch1 expression is “inhibited”.

**Q.** And the tumour formation ability (A2780-High cells; [12])?
**A.** The tumour formation ability was “almost completely abrogated”.

**Q.** And the “Number of tumours/number of injections” value (A2780-High cells; A2780-High cells pretreated with ATRA, 1 × 10^4 cells injected)?
**A.** The value was 4/9.

**Q.** What about the “ALDH1 expression in tumour cells from tissue sections” value (ALDH1 [7]; ATRA-treated mice compared with control mice) of the same compound?
**A.** Its value is “downregulated”.

**Q.** And the “ALDH1 expression in tumour cells (immunostaining)” value (ALDH1 [7]; tumours from ATRA-pretreated ALDH1-High cells)?
**A.** Its value is “reduced ALDH1 expression”.

**Q.** And the sphere formation ability [8]?
**A.** Its sphere formation ability is “inhibited”.

**Q.** And the tumour growth (CP70-High tumour)?
**A.** Its tumour growth is “significantly suppressed”.

**Q.** And the tumour growth (A2780-High tumour; 1×10^6 cells s.c., ATRA 0.05 or 0.1 mg into the peritoneal cavity three times per week)?
**A.** Its tumour growth is “inhibited A2780-High tumour growth in a dose-dependent manner”.

**Q.** And the “effective dose for mice” value (A2780-High tumour; mouse xenografts, administered doses 0.05 and 0.1 mg)?
**A.** The value was “at least 0.05 mg”.

**Q.** And the sphere formation ability [9]?
**A.** The sphere formation ability was “significantly reduced”.

**Q.** And the “proliferation (cell doubling time)” value (ES2-High cells [10])?
**A.** The value was “did not affect proliferation”.

**Q.** What about the cell invasion ability [11] of the same compound?
**A.** The cell invasion ability was “significantly reduced”.
